Measurements as given in US8080371B2, “Markers for addiction” (The Washington University, priority 2006, dated 2011).

Key:
[1] = biological target: T1, α4β2α5D398 nAChR heterologously expressed in HEK293T cells (Mus musculus, UniProt O70174+Q9ERK7); experiment: Aequorin-based luminescence assay of agonist-evoked changes in intracellular calcium; assay type: cell-based
T1 construct: expressed in transfected cells; host or cells: HEK293T
Method: (§1) HEK293T cells were maintained at 37° C. in a humidified, 5% CO2 environment in Dulbecco's modified Eagle's medium (high glucose, no pyruvate) (DMEM), 10% heat-inactivated fetal bovine serum and antibiotic/antimycotic (100 U/mL penicillin, 100 μg/mL streptomycin and 0.25 μg/mL amphotericin B). Culture reagents were purchased from either Biowhittaker (East Rutherford, N.J., USA) or Invitrogen (Carlsbad, Calif., USA).
Agonist-evoked changes in intracellular calcium was performed using an aequorin-based luminescence assay as previously described (Karadsheh et al., 2004). […]
For the epibatidine concentration-response curves, 50 μL of cells were added to each well of a 96-well opaque white plate and placed in a Victor3V plate reader (Perkin Elmer). Following a 1 second baseline read, 50 μl epibatidine was injected onto each sample and luminescence was recorded at 0.2 s intervals for 20 s immediately following the addition of agonist. At the completion of the agonist stimulation, 100 μL of a solution containing 0.1% Triton X-100 and 100 mM CaCl2 was injected into each well and luminescence was recorded for 5 s at 0.1 s intervals. […]

[2] = biological target: T2, α4β2α5N398 nAChR heterologously expressed in HEK293T cells (Mus musculus, UniProt O70174+Q2MKA5+Q9ERK7, D397N); experiment: cell-based
T2 construct: expressed in transfected cells; host or cells: HEK293T
Method: as §1
(§2) Agonist-evoked changes in intracellular calcium was performed using an aequorin-based luminescence assay as previously described (Karadsheh et al., 2004). HEK293T cells were seeded onto six-well plates (1.5×10^6 cells/well) and were transfected the following day with plasmids (0.25 μg/well for each plasmid) containing a human codon-optimized aequorin cDNA (Vernon and Printen 2002), the mouse α4 and β2 cDNAs and either the wild-type mouse α5 cDNA (D398) or a mouse α5 cDNA in which D398 was mutated to N398. Transfection was performed using either the LipofectAmine Plus Reagent (Invitrogen) or Fugene HD transfection reagent (Roche, Indianapolis, Ind.) as recommended by the manufacturers. […]
(§3) For the epibatidine concentration-response curves, 50 μL of cells were added to each well of a 96-well opaque white plate and placed in a Victor3V plate reader (Perkin Elmer). Following a 1 second baseline read, 50 μl epibatidine was injected onto each sample and luminescence was recorded at 0.2 s intervals for 20 s immediately following the addition of agonist. At the completion of the agonist stimulation, 100 μL of a solution containing 0.1% Triton X-100 and 100 mM CaCl2 was injected into each well and luminescence was recorded for 5 s at 0.1 s intervals. In order to control for differences in cell number per well as well as variation in transfection efficiency and coelenterazine loading, agonist responses were normalized by dividing the maximal peak value for the agonist-stimulated luminescence (L) by the total peak luminescence value (Lmax) (maximal peak agonist-stimulated luminescence+maximal peak luminescence resulting from cell lysis in the presence of high calcium).

[3] = system: α4β2α5N398 nAChR heterologously expressed in HEK293T cells; experiment: cell-based; design: species or system mouse; conditions: p<0.0005
Method: as §1, §2, §3

[4] = cigarette smoking, background statement; cited from earlier work

T2 sequence (Q2MKA5 30-467 D397N): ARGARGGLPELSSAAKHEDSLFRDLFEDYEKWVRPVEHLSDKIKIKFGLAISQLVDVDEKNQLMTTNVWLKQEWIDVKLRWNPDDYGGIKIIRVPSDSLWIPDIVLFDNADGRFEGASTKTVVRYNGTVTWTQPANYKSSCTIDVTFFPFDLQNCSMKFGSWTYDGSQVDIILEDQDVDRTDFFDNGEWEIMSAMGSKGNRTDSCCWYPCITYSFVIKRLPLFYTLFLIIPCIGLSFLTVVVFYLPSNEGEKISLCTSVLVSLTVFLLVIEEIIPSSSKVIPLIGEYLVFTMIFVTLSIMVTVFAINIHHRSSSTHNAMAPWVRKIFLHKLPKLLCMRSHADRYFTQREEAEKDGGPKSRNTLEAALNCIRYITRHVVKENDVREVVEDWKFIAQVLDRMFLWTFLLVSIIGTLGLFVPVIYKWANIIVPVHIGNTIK
T2 sequence (O70174 31-629): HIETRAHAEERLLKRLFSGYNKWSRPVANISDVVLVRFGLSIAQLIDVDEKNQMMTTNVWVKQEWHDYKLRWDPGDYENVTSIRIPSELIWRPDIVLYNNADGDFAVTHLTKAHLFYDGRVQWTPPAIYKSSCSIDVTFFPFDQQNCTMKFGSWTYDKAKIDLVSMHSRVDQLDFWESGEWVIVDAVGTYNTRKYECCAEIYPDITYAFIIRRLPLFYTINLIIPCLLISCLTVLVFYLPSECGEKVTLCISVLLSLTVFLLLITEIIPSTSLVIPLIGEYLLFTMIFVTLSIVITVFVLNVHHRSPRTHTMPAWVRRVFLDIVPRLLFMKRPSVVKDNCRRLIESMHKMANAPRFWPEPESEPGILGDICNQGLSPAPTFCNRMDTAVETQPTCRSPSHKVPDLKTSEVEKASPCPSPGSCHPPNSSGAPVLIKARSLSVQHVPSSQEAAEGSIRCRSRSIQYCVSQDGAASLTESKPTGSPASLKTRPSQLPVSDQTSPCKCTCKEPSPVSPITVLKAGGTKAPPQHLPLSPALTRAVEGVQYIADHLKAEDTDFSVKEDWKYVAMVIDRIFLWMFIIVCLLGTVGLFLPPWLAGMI
T2 sequence (Q9ERK7 26-501): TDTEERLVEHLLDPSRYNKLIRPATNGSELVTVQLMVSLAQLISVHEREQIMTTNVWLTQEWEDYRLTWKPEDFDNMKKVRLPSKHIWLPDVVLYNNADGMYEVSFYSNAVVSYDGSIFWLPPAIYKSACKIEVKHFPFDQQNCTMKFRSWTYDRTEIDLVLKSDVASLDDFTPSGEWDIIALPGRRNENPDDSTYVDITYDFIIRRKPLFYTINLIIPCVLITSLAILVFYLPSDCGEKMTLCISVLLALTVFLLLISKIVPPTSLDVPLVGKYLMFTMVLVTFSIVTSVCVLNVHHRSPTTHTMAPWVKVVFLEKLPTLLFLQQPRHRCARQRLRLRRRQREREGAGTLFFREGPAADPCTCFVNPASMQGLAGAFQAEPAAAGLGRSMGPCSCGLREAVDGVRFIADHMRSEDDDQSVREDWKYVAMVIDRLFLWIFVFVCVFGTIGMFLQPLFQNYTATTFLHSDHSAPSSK
T1 sequence (Q2MKA5 30-467): as the sequence (Q2MKA5 30-467 D397N) above, with N368D counted along it
T1 sequence (Q9ERK7 26-501): as the sequence (Q9ERK7 26-501) above
T1 sequence (O70174 31-629): as the sequence (O70174 31-629) above

Clc1ccc(C2CC3CCC2N3)cn1 (stereo not drawn) [epibatidine]
EC50 [1]: 0.0259 ± 0.0015 nM | maximal response to agonist per receptor ([1]; L/Lmax divided by fmol of nAChR per sample well, α4β2α5D398, mean ± SEM, N=12): 0.147±0.01 | EC50 [2]: 0.0191 ± 0.0014 nM | maximal response to agonist per receptor ([2]; L/Lmax divided by fmol of nAChR per sample well, α4β2α5N398, mean ± SEM, N=12): 0.356±0.022 | maximal response to agonist per receptor, α4β2α5N398 relative to α4β2α5D398 [3]: over two-fold higher

CN1CCCC1c1cccnc1 (stereo not drawn) [nicotine]
time to peak drug level in brain after inhalation [4]: ≤ 10 s
